{"source": "paper PMC9653173", "about": "“Trotabresib (CC-90010) in combination with adjuvant temozolomide or concomitant temozolomide plus radiotherapy in patients with newly diagnosed glioblastoma” (Neuro-Oncology Advances, 2022)", "key": {"[1]": {"assay": "Trotabresib plasma pharmacokinetics, CC-90010-GBM-002", "format": "in vivo, human", "settings": "for Cmax: read-out: Cmax, GM (GCV%)", "description": "The sample size was not based on strict statistical power calculations. Safety, efficacy, and pharmacodynamic analyses were summarized using descriptive statistics. Plasma pharmacokinetic parameters were calculated by the noncompartmental analysis method from plasma concentration–time profiles."}, "[2]": {"system": "CCR1 mRNA", "assay": "Blood CCR1 mRNA pharmacodynamics", "format": "in vivo, human", "from_the_text": "(§1) Plasma samples were collected during the first treatment cycle for investigation of trotabresib pharmacokinetics and pharmacodynamics. Plasma pharmacokinetic parameters assessed included peak plasma concentration (Cmax), time to peak plasma concentration (tmax), area under the plasma concentration–time curve (AUC), and terminal half-life (t½). Pharmacodynamic markers assessed included blood levels of CCR1 and HEXIM1 mRNA, which are established markers of BET inhibitor target engagement.[17],[22],[37],[38]"}, "[3]": {"system": "HEXIM1 mRNA", "assay": "Blood HEXIM1 mRNA pharmacodynamics", "format": "in vivo, human", "from_the_text": "as §1"}, "[4]": {"system": "glioblastoma PDX models", "assay": "Tumor growth inhibition in glioblastoma patient-derived xenograft models", "format": "in vivo", "settings": "Supplementary Figure S1", "source_text": "Supplementary Figure 1. Trotabresib-mediated tumor growth inhibition in a glioblastoma patient-derived xenograft with and without TMZ. [picture] ^aTMZ given on days 7–9 and 22–24."}, "[5]": {"system": "MGMT", "assay": "In vivo downregulation of MGMT", "settings": "preclinical; Supplementary Figure S2", "source_text": "Supplementary Figure 2. In vivo downregulation of MGMT (A) mRNA by trotabresib as a single agent and (B) protein by trotabresib in combination with TMZ."}, "[6]": {"set-up": "method as in PMID 36455228", "settings": "recurrent high-grade glioma, trotabresib 30 mg/day on days 1–4 before surgery; cited from earlier work"}, "[7]": {"system": "MYC", "settings": "in vitro; ref Bristol Myers Squibb; data on file; cited from earlier work"}}, "note": "Like-named read-outs stand apart in the source and are kept apart here.", "data": [{"smiles": "Cn1cc(-c2cc(S(C)(=O)=O)ccc2OCC2CC2)c2ccccc2c1=O", "note": "[Trotabresib]", "values": [{"measurement": "Reduction in plasma trotabresib concentration", "setting": "[1]; 168 hours post-dose", "value": "> 75", "unit": "%"}, {"measurement": "mean t½", "setting": "[1]; all cohorts, standard deviation ± 27.2", "value": "~ 74 h"}, {"measurement": "Increase in exposure with dose", "setting": "[1]; both treatment settings, 15-45 mg", "value": "proportional to dose"}, {"measurement": "Cmax", "setting": "[1]; human, plasma, oral, adjuvant trotabresib 15 mg + TMZ, Day 1", "value": 201, "unit": "ng/mL"}, {"measurement": "Tmax", "setting": "[1]; human, plasma, oral, adjuvant trotabresib 15 mg + TMZ, Day 1, read-out: tmax, median (range)", "value": 1, "unit": "h"}, {"measurement": "Cmax", "setting": "[1]; human, plasma, oral, adjuvant trotabresib 15 mg + TMZ, Day 4", "value": 433, "unit": "ng/mL"}, {"measurement": "Tmax", "setting": "[1]; human, plasma, oral, adjuvant trotabresib 15 mg + TMZ, Day 4, read-out: tmax, median (range)", "value": 1.5, "unit": "h"}, {"measurement": "Cmax", "setting": "[1]; human, plasma, oral, adjuvant trotabresib 30 mg + TMZ, Day 1", "value": 306, "unit": "ng/mL"}, {"measurement": "Tmax", "setting": "[1]; human, plasma, oral, adjuvant trotabresib 30 mg + TMZ, Day 1, read-out: tmax, median (range)", "value": 2, "unit": "h"}, {"measurement": "Cmax", "setting": "[1]; human, plasma, oral, adjuvant trotabresib 30 mg + TMZ, Day 4", "value": 822, "unit": "ng/mL"}, {"measurement": "Tmax", "setting": "[1]; human, plasma, oral, adjuvant trotabresib 30 mg + TMZ, Day 4, read-out: tmax, median (range)", "value": 1.5, "unit": "h"}, {"measurement": "Cmax", "setting": "[1]; human, plasma, oral, adjuvant trotabresib 45 mg + TMZ, Day 1", "value": 522, "unit": "ng/mL"}, {"measurement": "Tmax", "setting": "[1]; human, plasma, oral, adjuvant trotabresib 45 mg + TMZ, Day 1, read-out: tmax, median (range)", "value": 2, "unit": "h"}, {"measurement": "Cmax", "setting": "[1]; human, plasma, oral, adjuvant trotabresib 45 mg + TMZ, Day 4", "value": 1160, "unit": "ng/mL"}, {"measurement": "Tmax", "setting": "[1]; human, plasma, oral, adjuvant trotabresib 45 mg + TMZ, Day 4, read-out: tmax, median (range)", "value": 1.5, "unit": "h"}, {"measurement": "half-life", "setting": "[1]; human, plasma, oral, all cohorts, standard deviation ± 27.2, read-out: mean t½ (converted)", "value": 74.2, "unit": "h"}, {"measurement": "Cmax", "setting": "[1]; human, plasma, oral, concomitant trotabresib 15 mg + TMZ + RT, Day 1", "value": 167, "unit": "ng/mL"}, {"measurement": "Tmax", "setting": "[1]; human, plasma, oral, concomitant trotabresib 15 mg + TMZ + RT, Day 1, read-out: tmax, median (range)", "value": 2, "unit": "h"}, {"measurement": "Cmax", "setting": "[1]; human, plasma, oral, concomitant trotabresib 15 mg + TMZ + RT, Day 4", "value": 383, "unit": "ng/mL"}, {"measurement": "Tmax", "setting": "[1]; human, plasma, oral, concomitant trotabresib 15 mg + TMZ + RT, Day 4, read-out: tmax, median (range)", "value": 1.3, "unit": "h"}, {"measurement": "Cmax", "setting": "[1]; human, plasma, oral, concomitant trotabresib 30 mg + TMZ + RT, Day 1", "value": 309, "unit": "ng/mL"}, {"measurement": "Tmax", "setting": "[1]; human, plasma, oral, concomitant trotabresib 30 mg + TMZ + RT, Day 1, read-out: tmax, median (range)", "value": 2, "unit": "h"}, {"measurement": "Cmax", "setting": "[1]; human, plasma, oral, concomitant trotabresib 30 mg + TMZ + RT, Day 4", "value": 874, "unit": "ng/mL"}, {"measurement": "Tmax", "setting": "[1]; human, plasma, oral, concomitant trotabresib 30 mg + TMZ + RT, Day 4, read-out: tmax, median (range)", "value": 1.5, "unit": "h"}, {"measurement": "Tmax", "setting": "[1]; human, plasma, oral, day 4, all cohorts, read-out: tmax", "value": "0.5 to 4", "unit": "h"}, {"measurement": "Blood CCR1 mRNA expression, lower than at baseline", "setting": "[2]; RP2D 30 mg, day 4, 2–4 h post-dose, adjuvant and concomitant settings", "value": "≥ 50", "unit": "%"}, {"measurement": "Time to return of CCR1 mRNA expression to baseline levels", "setting": "[2]; RP2D 30 mg, post-dose in cycle 1", "value": "≤ 168", "unit": "h"}, {"measurement": "Blood CCR1 mRNA modulation", "setting": "[2]; trotabresib 15 mg, adjuvant or concomitant cohorts", "value": "no decrease in CCR1 expression"}, {"measurement": "Duration of HEXIM1 mRNA elevation", "setting": "[3]; RP2D 30 mg, cycle 1", "value": "remained above baseline until 168 h post-dose"}, {"measurement": "Increase in blood HEXIM1 mRNA expression", "setting": "[3]; RP2D 30 mg, days 3 and 4, adjuvant and concomitant cohorts", "value": "2.5- to 4.0 fold"}, {"measurement": "HEXIM1 modulation vs dose", "setting": "[3]; both cohorts", "value": "increased with trotabresib dose"}, {"measurement": "Effect on antiproliferative effects of TMZ", "setting": "[4]; glioblastoma PDX models", "value": "enhances the antiproliferative effects of TMZ"}, {"measurement": "Antitumor activity as a single agent", "setting": "[4]; glioblastoma models", "value": "has antitumor activity in glioblastoma models as a single agent"}, {"measurement": "MGMT expression", "setting": "[5]", "value": "downregulates MGMT expression in a dose-dependent manner"}, {"measurement": "Brain tumor tissue:plasma ratio", "setting": "[6]", "value": 0.84}, {"measurement": "MYC expression", "setting": "[7]", "value": "downregulated in vitro"}]}]}
